The source of these data is US6727279B2, “Arylsulphonamides and analogues” (Bayer Aktiengesellschaft, priority 1998, dated 2004).

Each structure is given as a SMILES string.

The target in the test is T1, rat CB1 receptor (Rattus norvegicus, UniProt P20272).
T1 construct: contains an open reading frame of 1419 base pairs which corresponds to a protein of 473 amino acids; expressed in transfected cells; host or cells: CHOluc9 cells (CHO luciferase reporter line), stably transfected with pRc/CMV-based plasmid CMV-RH
T1 sequence (P20272 whole entry): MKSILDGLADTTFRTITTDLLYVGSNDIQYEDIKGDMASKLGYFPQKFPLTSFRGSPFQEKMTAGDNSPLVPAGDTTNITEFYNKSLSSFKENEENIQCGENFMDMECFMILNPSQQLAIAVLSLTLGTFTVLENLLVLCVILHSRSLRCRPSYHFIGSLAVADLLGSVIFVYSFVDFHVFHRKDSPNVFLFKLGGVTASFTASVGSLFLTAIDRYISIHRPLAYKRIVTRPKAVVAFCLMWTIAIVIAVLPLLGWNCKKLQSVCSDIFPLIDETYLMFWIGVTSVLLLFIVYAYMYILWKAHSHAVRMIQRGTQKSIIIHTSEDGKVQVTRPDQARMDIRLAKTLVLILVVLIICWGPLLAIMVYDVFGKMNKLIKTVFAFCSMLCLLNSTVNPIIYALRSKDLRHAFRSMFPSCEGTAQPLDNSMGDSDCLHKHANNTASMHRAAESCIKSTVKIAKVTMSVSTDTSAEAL
Description: CB1 luciferase reporter gene test. It is filed as cell-based. The conditions noted are these: CHOluc9 cells stably transfected with rat CB1, forskolin-stimulated luciferase; read-out: IC50 (nmol/l), activity in the rat CB1 receptor luciferase receptor gene test. The text has this: CB1—Luciferase Reporter Gene Test
1. Cloning of the Rat Cannabinoid Receptor CB1
Total RNA from rat brain (the tissue was taken from freshly killed animals and shock-frozen in liquid nitrogen) was isolated by acidic guanidinium thiocyanate/phenol/chloroform extraction (J. Biol. Chem. 1979, 18, 5294) and converted into cDNA by means of reverse transcriptase and random primers (in each case from Invitrogen). […] This PCR product was subcloned into the TA cloning vector (Invitrogen) and the nucleotide sequence of the insert was determined by the dideoxynucleotide chain termination reaction using T7DNA polymerase (Sequenase, USA/Amersham). The insert has a length of 1477 base pairs and contains an open reading frame of 1419 base pairs which corresponds to a protein of 473 amino acids. The number of base pairs, the position of the open reading frame and the number of amino acids agree with the published sequence. […]
For orientation: A reporter such as luciferase makes a cellular process visible.

As to `O=S(=O)(CCCC(F)(F)F)Oc1cccc(Oc2cccc3cc(CO)oc23)c1` [Example 1, 2-Hydroxymethyl-7-[3-(4,4,4-trifluorobutyl-1-sulphonyloxy)phenyl-1-oxy]-benzofuran], the IC50 is 0.55 nmol/L.
